The supplement of paper PMC10307832

How the values were obtained:
Assay in all cases: relative viability (nuclei count vs DMSO), 5 days (fraction); higher = more cells survive
NCI-H322M = system: NCI-H322M
Summary of the method: (§1)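 Lung cancer cell lines, seeded in 1536-well plates, were treated the following day by pin tool with a single drug or with five library-drug doses (not always all listed) in √10 steps on top of a fixed anchor-drug dose. Cells were fixed and nuclei stained in one step after 5 days, and nuclei were counted. Relative viability is the nuclei count for treated wells divided by that for vehicle wells, reported as medians of duplicate plates.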

NCI-H520 = system: NCI-H520
Summary of the method: as §1

NCI-H1755 = system: NCI-H1755
Summary of the method: as §1

SK-MES-1 = system: SK-MES-1
Summary of the method: as §1

NCI-H1651 = system: NCI-H1651
Summary of the method: as §1

NCI-H2347 = system: NCI-H2347
Summary of the method: as §1

LCLC-103H = system: LCLC-103H
Summary of the method: as §1

NCI-H1915 = system: NCI-H1915
Summary of the method: as §1

NCI-H727 = system: NCI-H727
Summary of the method: as §1

SW 900 = system: SW 900
Summary of the method: as §1

NCI-H522 = system: NCI-H522
Summary of the method: as §1

NCI-H3122 = system: NCI-H3122
Summary of the method: as §1

RERF-LC-KJ = system: RERF-LC-KJ
Summary of the method: as §1

NCI-H441 = system: NCI-H441
Summary of the method: as §1

NCI-H460 = system: NCI-H460
Summary of the method: as §1

NCI-H661 = system: NCI-H661
Summary of the method: as §1

NCI-H1355 = system: NCI-H1355
Summary of the method: as §1

NCI-H596 = system: NCI-H596
Summary of the method: as §1

PC-14 = system: PC-14
Summary of the method: as §1

LXF-289 = system: LXF-289
Summary of the method: as §1

## COc1cc2nccc(Oc3ccc(NC(=O)Nc4cc(C)on4)c(Cl)c3)c2cc1OC [Tivozanib] + Cc1cc(Nc2cc(N3CCN(C)CC3)nc(Sc3ccc(NC(=O)C4CC4)cc3)n2)n[nH]1 [Tozasertib] (partner 0.1 µM)
NCI-H322M; first compound 0.005 µM
  relative viability: 0.455
NCI-H322M; first compound 0.01581 µM
  relative viability: 0.48
NCI-H322M; first compound 0.05 µM
  relative viability: 0.518
NCI-H322M; first compound 0.1581 µM
  relative viability: 0.395
NCI-H322M; first compound 0.5 µM
  relative viability: 0.479
NCI-H520; first compound 0.005 µM
  relative viability: 0.402
NCI-H520; first compound 0.01581 µM
  relative viability: 0.373
NCI-H520; first compound 0.05 µM
  relative viability: 0.446
NCI-H520; first compound 0.1581 µM
  relative viability: 0.444
NCI-H520; first compound 0.5 µM
  relative viability: 0.433
NCI-H1755; first compound 0.005 µM
  relative viability: 0.565
NCI-H1755; first compound 0.01581 µM
  relative viability: 0.581
NCI-H1755; first compound 0.05 µM
  relative viability: 0.588
NCI-H1755; first compound 0.1581 µM
  relative viability: 0.666
NCI-H1755; first compound 0.5 µM
  relative viability: 0.531
SK-MES-1; first compound 0.005 µM
  relative viability: 0.801
SK-MES-1; first compound 0.01581 µM
  relative viability: 0.888
SK-MES-1; first compound 0.05 µM
  relative viability: 0.98
SK-MES-1; first compound 0.1581 µM
  relative viability: 0.901
SK-MES-1; first compound 0.5 µM
  relative viability: 0.789
NCI-H1651; first compound 0.005 µM
  relative viability: 0.698
NCI-H1651; first compound 0.01581 µM
  relative viability: 0.768
NCI-H1651; first compound 0.05 µM
  relative viability: 0.758
NCI-H1651; first compound 0.1581 µM
  relative viability: 0.764
NCI-H1651; first compound 0.5 µM
  relative viability: 0.565
NCI-H2347; first compound 0.01581 µM
  relative viability: 0.54
NCI-H2347; first compound 0.05 µM
  relative viability: 0.594
NCI-H2347; first compound 0.5 µM
  relative viability: 0.511
LCLC-103H; first compound 0.005 µM
  relative viability: 0.525
LCLC-103H; first compound 0.01581 µM
  relative viability: 0.503
LCLC-103H; first compound 0.05 µM
  relative viability: 0.449
LCLC-103H; first compound 0.1581 µM
  relative viability: 0.51
LCLC-103H; first compound 0.5 µM
  relative viability: 0.549
NCI-H1915; first compound 0.005 µM
  relative viability: 0.4
NCI-H1915; first compound 0.01581 µM
  relative viability: 0.439
NCI-H1915; first compound 0.05 µM
  relative viability: 0.413
NCI-H1915; first compound 0.1581 µM
  relative viability: 0.511
NCI-H1915; first compound 0.5 µM
  relative viability: 0.5
NCI-H727; first compound 0.005 µM
  relative viability: 0.533
NCI-H727; first compound 0.01581 µM
  relative viability: 0.649
NCI-H727; first compound 0.05 µM
  relative viability: 0.588
NCI-H727; first compound 0.1581 µM
  relative viability: 0.635
NCI-H727; first compound 0.5 µM
  relative viability: 0.886
SW 900; first compound 0.005 µM
  relative viability: 0.624
SW 900; first compound 0.01581 µM
  relative viability: 0.626
SW 900; first compound 0.05 µM
  relative viability: 0.606
SW 900; first compound 0.1581 µM
  relative viability: 0.637
SW 900; first compound 0.5 µM
  relative viability: 0.565
NCI-H522; first compound 0.005 µM
  relative viability: 0.581
NCI-H522; first compound 0.01581 µM
  relative viability: 0.553
NCI-H522; first compound 0.05 µM
  relative viability: 0.581
NCI-H522; first compound 0.1581 µM
  relative viability: 0.536
NCI-H522; first compound 0.5 µM
  relative viability: 0.577
NCI-H3122; first compound 0.005 µM
  relative viability: 0.418
NCI-H3122; first compound 0.01581 µM
  relative viability: 0.428
NCI-H3122; first compound 0.05 µM
  relative viability: 0.468
NCI-H3122; first compound 0.1581 µM
  relative viability: 0.586
NCI-H3122; first compound 0.5 µM
  relative viability: 0.253
RERF-LC-KJ; first compound 0.005 µM
  relative viability: 0.477
RERF-LC-KJ; first compound 0.01581 µM
  relative viability: 0.482
RERF-LC-KJ; first compound 0.05 µM
  relative viability: 0.533
RERF-LC-KJ; first compound 0.1581 µM
  relative viability: 0.534
RERF-LC-KJ; first compound 0.5 µM
  relative viability: 0.496
NCI-H441; first compound 0.005 µM
  relative viability: 0.682
NCI-H441; first compound 0.01581 µM
  relative viability: 0.635
NCI-H441; first compound 0.05 µM
  relative viability: 0.596
NCI-H441; first compound 0.1581 µM
  relative viability: 0.768
NCI-H441; first compound 0.5 µM
  relative viability: 0.474
NCI-H460; first compound 0.005 µM
  relative viability: 0.394
NCI-H460; first compound 0.01581 µM
  relative viability: 0.394
NCI-H460; first compound 0.05 µM
  relative viability: 0.536
NCI-H460; first compound 0.1581 µM
  relative viability: 0.554
NCI-H460; first compound 0.5 µM
  relative viability: 0.446
NCI-H661; first compound 0.005 µM
  relative viability: 0.37
NCI-H661; first compound 0.01581 µM
  relative viability: 0.362
NCI-H661; first compound 0.05 µM
  relative viability: 0.359
NCI-H661; first compound 0.1581 µM
  relative viability: 0.363
NCI-H661; first compound 0.5 µM
  relative viability: 0.363
NCI-H1355; first compound 0.005 µM
  relative viability: 0.515
NCI-H1355; first compound 0.01581 µM
  relative viability: 0.576
NCI-H1355; first compound 0.05 µM
  relative viability: 0.57
NCI-H1355; first compound 0.1581 µM
  relative viability: 0.614
NCI-H1355; first compound 0.5 µM
  relative viability: 0.53
NCI-H596; first compound 0.005 µM
  relative viability: 0.873
NCI-H596; first compound 0.01581 µM
  relative viability: 0.888
NCI-H596; first compound 0.05 µM
  relative viability: 0.939
NCI-H596; first compound 0.5 µM
  relative viability: 0.885
PC-14; first compound 0.005 µM
  relative viability: 0.566
PC-14; first compound 0.01581 µM
  relative viability: 0.647
PC-14; first compound 0.05 µM
  relative viability: 0.55
PC-14; first compound 0.1581 µM
  relative viability: 0.615
PC-14; first compound 0.5 µM
  relative viability: 0.507
LXF-289; first compound 0.005 µM
  relative viability: 0.173
LXF-289; first compound 0.01581 µM
  relative viability: 0.201
LXF-289; first compound 0.05 µM
  relative viability: 0.228
LXF-289; first compound 0.1581 µM
  relative viability: 0.272
LXF-289; first compound 0.5 µM
  relative viability: 0.23
